Laboratory results as given in the Deep4Chem optical property database.

Assay: solvent given as SMILES
[1] = in O=P(c1ccccc1)(c1ccccc1)c1ccccc1Oc1ccccc1P(=O)(c1ccccc1)c1ccccc1

Molecule N#Cc1cc(N2c3ccccc3Sc3ccccc32)c(N2c3ccccc3Sc3ccccc32)cc1C#N has a fluorescence lifetime (in c1ccc2c(c1)c1ccccc1n2-c1ccc(-c2ccc(-n3c4ccccc4c4ccccc43)cc2)cc1) of 48.2 ns.
Molecule c1ccc(-c2nc(-c3ccccc3)nc(-c3ccc(-n4c5ccccc5c5c6c(ccc54)C4(c5ccccc5-c5ccccc54)c4ccccc4-6)cc3)n2)cc1 has a fluorescence lifetime [1] of 11.1 ns.
Molecule CC(C)(C)c1cc2c3cc(C(C)(C)C)c(-c4cc5cc6c7cccc8cccc(c9cc(C(C)(C)C)cc(c5cc4C(C)(C)C)c96)c87)cc3cc3c4cccc5cccc(c(c1)c23)c54 has a fluorescence lifetime (in CC1CCCCC1) of 3.4 ns.
For CC1=CC(C)=[N+]2C1=Cc1c3ccccc3c(C#Cc3cccs3)n1[B-]2(F)F, the fluorescence lifetime (in CCCCCC) was 4.69 ns, the fluorescence lifetime (in CCCCCCCCO) was 3.74 ns and the fluorescence lifetime (in CCOC(C)=O) was 4.07 ns. For the same molecule, the fluorescence lifetime (in CN(C)C=O) was 3.46 ns.
Molecule c1ccc(/C(=C(\c2ccccc2)c2cc(-c3ccccc3)ccc2-c2ccccc2)c2cc(-c3ccccc3)ccc2-c2ccccc2)cc1 has a fluorescence lifetime (in C1CCOC1) of 6.5 ns.
CCCCCCN1C(=O)c2cccc3cc(/N=C\c4ccc(N5CCOCC5)cc4)cc(c23)C1=O showed a fluorescence lifetime (in ClC(Cl)Cl) of 3.84 ns.
Work on COc1cc(/C=C/c2nc(N3CCOCC3)c3c([n+]2[O-])CCCC3)cc(OC)c1OC yielded a fluorescence lifetime (in ClCCl) of 8.5 ns.
In the case of COc1ccc(/C=C/c2ccc(-c3ccc(C)cn3)nc2)cc1, the fluorescence lifetime (in CC#N) is reported as 0.58 ns.
With Nc1nc2ccc([N+](=O)[O-])cc2s1 the fluorescence lifetime (in CC#N) was 4.11 ns and the fluorescence lifetime (in ClCCl) was 3.53 ns.
With CCOC(=O)CCCCCn1c2ccc([N+](=O)[O-])cc2c(=O)c2cc3c(cc21)c(=O)c1cc([N+](=O)[O-])ccc1n3CCCCCC(=O)OCC the fluorescence lifetime (in ClCCl) was 5.1 ns.
CC1=C2c3ccccc3C(c3ccc[nH]3)=[N+]2[B-](F)(F)n2cccc21 gave a fluorescence lifetime (in ClCCl) of 6.71 ns.
Molecule CC(=O)OCCOCCN1C(=O)c2cc(NCCOCCO)c3c4c(cc(NCCOCCO)c(c24)C1=O)C(=O)N(CCOCCOC(C)=O)C3=O has a fluorescence lifetime (in CO) of 8 ns, a fluorescence lifetime (in ClC(Cl)Cl) of 9.6 ns and a fluorescence lifetime (in O) of 4.4 ns.
With O=P1(c2ccccc2)C2=C(c3ccccc31)S(=O)(=O)c1ccccc12 (stereo not drawn) the fluorescence lifetime (in ClCCl) was 12.9 ns.
Molecule F[B-]12Oc3ccccc3-c3c4[n+]5c(c([n+]31)-c1ccccc1O2)-c1ccccc1O[B-]5(F)Oc1ccccc1-4 has a fluorescence lifetime (in ClCCl) of 4.52 ns.
With COc1ccc2c(C=C(C#N)C#N)cc3ccc4cc(C=C(C#N)C#N)c5ccc(OC)cc5c4c3c2c1 the fluorescence lifetime (in ClC(Cl)Cl) was 1.5 ns.
CCOC(=O)c1ccc2c(c1)n(C)c1c3ccc(C(=O)OCC)cc3n(C)c21 showed a fluorescence lifetime (in CCCO) of 7.8 ns.
CC(C)(C)c1ccc2c(c1)c1cc(C(C)(C)C)ccc1n2-c1cc(C(=O)c2ccncc2)cc(-n2c3ccc(C(C)(C)C)cc3c3cc(C(C)(C)C)ccc32)c1 gave a fluorescence lifetime (in c1cc(-c2cccc(-n3c4ccccc4c4ccccc43)c2)cc(-n2c3ccccc3c3ccccc32)c1) of 28.1 ns.
CCCCn1c(-c2ccc(-c3nnc(-c4cccs4)o3)cc2)nc2c3ccccc3c3ccccc3c21 gave a fluorescence lifetime (in ClCCl) of 1.76 ns.
For CCC1(CC)c2ccccc2-c2c1c1c(c3c2C(CC)(CC)c2cc(B(c4c(C)cc(C)cc4C)c4c(C)cc(C)cc4C)ccc2-3)C(CC)(CC)c2cc(B(c3c(C)cc(C)cc3C)c3c(C)cc(C)cc3C)ccc2-1, the fluorescence lifetime (in C1CCOC1) was 4.2 ns.
In the case of O=S(=O)([O-])CCC[n+]1c2ccccc2cc2ccccc21, the fluorescence lifetime (in O) is reported as 31.2 ns.
Work on C(=C\c1ccc(N(c2ccc(/C=C/c3ccc(N(c4ccccc4)c4ccccc4)cc3)cc2)c2ccc(-c3nc4ccccc4nc3-c3ccc(N(c4ccc(/C=C/c5ccc(N(c6ccccc6)c6ccccc6)cc5)cc4)c4ccc(/C=C/c5ccc(N(c6ccccc6)c6ccccc6)cc5)cc4)cc3)cc2)cc1)/c1ccc(N(c2ccccc2)c2ccccc2)cc1 yielded a fluorescence lifetime (in C1CCOC1) of 1.5 ns.
With C[Si](C)(C)C#Cc1ccc(C#C[Si](C)(C)C)c2ccccc12 the fluorescence lifetime (in C1CCCCC1) was 2 ns.
Molecule Cn1c2ccc(S(=O)(=O)O)cc2c(=O)c2cc(S(=O)(=O)O)ccc21 has a fluorescence lifetime (in CS(C)=O) of 10.6 ns and a fluorescence lifetime (in O) of 16.7 ns.
Molecule C#CCNC1=C2C(C)=CC(C)=[N+]2[B-](F)(F)n2c(C)cc(C)c21 has a fluorescence lifetime (in C1CCCCC1) of 1.78 ns, a fluorescence lifetime (in CC(C)=O) of 0.61 ns and a fluorescence lifetime (in CCOC(C)=O) of 0.78 ns. For the same molecule, the fluorescence lifetime (in CO) was 0.518 ns and the fluorescence lifetime (in OCC(F)(F)F) was 0.76 ns.
Oc1cc2ccc3cc(O)cc4ccc(c1)c2c34 gave a fluorescence lifetime (in CO) of 29 ns.
With Nc1nc2ccc(Br)cc2s1 the fluorescence lifetime (in CC#N) was 1.91 ns and the fluorescence lifetime (in ClCCl) was 1.37 ns.
With COC(=O)/C=C/c1ccc2ccc3cccc4ccc1c2c34 the fluorescence lifetime (in C1CCOC1) was 2.8 ns, the fluorescence lifetime (in CC#N) was 2.4 ns and the fluorescence lifetime (in CC(C)=O) was 2.6 ns.
For N#Cc1c(-n2c3ccc(Cl)cc3c3cc(Cl)ccc32)c(C#N)c(-n2c3ccc(Cl)cc3c3cc(Cl)ccc32)c(-n2c3ccc(Cl)cc3c3cc(Cl)ccc32)c1-n1c2ccc(Cl)cc2c2cc(Cl)ccc21, the fluorescence lifetime (in Cc1ccccc1) was 0.4 ns.
With CCCCn1c2c(-c3ccc(N(c4ccccc4)c4ccccc4)cc3)cc(C#N)cc2c2cc(C#N)cc(-c3ccc(N(c4ccccc4)c4ccccc4)cc3)c21 the fluorescence lifetime (in ClCCl) was 2.29 ns.
Molecule CCCN1C(=O)C(=CC=CC=C2Oc3ccccc3N2CCCS(=O)(=O)[O-])C(=O)N(CCC)C1=S has a fluorescence lifetime (in CC(C)=O) of 0.854 ns, a fluorescence lifetime (in CCCCO) of 0.821 ns and a fluorescence lifetime (in CCO) of 0.465 ns. It also gave a fluorescence lifetime (in CO) of 0.288 ns and a fluorescence lifetime (in ClC(Cl)Cl) of 0.712 ns.
Molecule CC(C)c1ccc2ccc3c(C(C)C)ccc4ccc1c2c43 has a fluorescence lifetime (in CCCCCC) of 52.9 ns, a fluorescence lifetime (in CO) of 85.7 ns and a fluorescence lifetime (in ClCCl) of 40.3 ns.
For Cc1ccc2c(c1)c1cc(C)ccc1n2-c1c(-n2c3ccccc3c3ccccc32)c(C#N)c(-n2c3ccccc3c3ccccc32)c(-n2c3ccc(C)cc3c3cc(C)ccc32)c1-n1c2ccccc2c2ccccc21, the fluorescence lifetime (in Cc1ccccc1) was 5.9 ns.
For Cc1ccc2c(c1)c1cc(C)ccc1n2-c1cccc(-n2c3ccc(C)cc3c3cc(C)ccc32)c1C#N, the fluorescence lifetime (in Cc1ccccc1) was 5.5 ns and the fluorescence lifetime [1] was 6.6 ns.
Work on CC1=[N+]2C(=C(c3ccc(N4CCOCC4)cc3)c3ccc(C)n3[B-]2(F)F)C=C1 yielded a fluorescence lifetime (in C1CCCCC1) of 2.15 ns and a fluorescence lifetime (in Cc1ccccc1) of 3.12 ns.
COc1ccc(-c2ccc3c(c2)c2cc(-c4ccc(OC)cc4)ccc2n3-c2ccc(C(=O)c3ccc4sc5ccccc5c4c3)cn2)cc1 gave a fluorescence lifetime (in c1cc(-n2c3ccccc3c3ccccc32)cc(-n2c3ccccc3c3ccccc32)c1) of 5.9 ns.
CN(C)c1cccc2c1-c1ccccc1C2=O showed a fluorescence lifetime (in C1CCCCC1) of 8 ns, a fluorescence lifetime (in CC#N) of 4.2 ns and a fluorescence lifetime (in c1ccccc1) of 10 ns.
CCN1/C(=C\c2c(-c3ccc(N(C)C)cc3)c(=O)c2=O)C=Cc2ccccc21 gave a fluorescence lifetime (in C1CCCCC1) of 1 ns, a fluorescence lifetime (in Cc1ccccc1) of 1.85 ns and a fluorescence lifetime (in ClCCl) of 0.1 ns.
Work on CC1(C)c2ccccc2N(c2ccc(-c3ncc(C#N)cn3)cc2)c2ccccc21 yielded a fluorescence lifetime (in N#Cc1ccc2c(c1)c1ccccc1n2-c1cccc(-n2c3ccccc3c3ccccc32)c1) of 23.7 ns.
CCCCC(CC)Cn1c2cc(C#N)ccc2c2cc(-c3ccc(N(c4ccccc4)c4ccccc4)cc3)c(C#N)cc21 (stereo not drawn) gave a fluorescence lifetime (in ClCCl) of 7.59 ns.
For CN(C)c1ccc(/C=C/C(=C(C#N)C#N)c2ccc3c4c(cccc24)CC3)cc1, the fluorescence lifetime (in C1CCOC1) was 5.2 ns, the fluorescence lifetime (in CC#N) was 2.25 ns and the fluorescence lifetime (in CC(C)=O) was 3.84 ns. It also gave a fluorescence lifetime (in CCOC(C)=O) of 4.98 ns, a fluorescence lifetime (in CN(C)C=O) of 3.31 ns and a fluorescence lifetime (in CO) of 2.85 ns. The fluorescence lifetime (in Cc1ccccc1) was 3.92 ns and the fluorescence lifetime (in ClC(Cl)Cl) was 4.27 ns.
CCOC(=O)CCCCCn1c2ccc(F)cc2c(=O)c2cc3c(cc21)c(=O)c1cc(F)ccc1n3CCCCCC(=O)OCC showed a fluorescence lifetime (in CO) of 22.7 ns.
In the case of CCCCCCOc1ccc(N(c2ccc(OCCCCCC)cc2)c2ccc(-c3sc(-c4ccc(N(c5ccc(OCCCCCC)cc5)c5ccc(OCCCCCC)cc5)cc4)c4nc(CC)c(CC)nc34)cc2)cc1, the fluorescence lifetime (in CN(C)C=O) is reported as 0.92 ns and the fluorescence lifetime (in ClC(Cl)Cl) is reported as 1.09 ns.
For COc1ccc(C2=CC(c3ccccc3)=[N+]3C2=Nc2c(-c4ccc(OC)cc4)cc(-c4ccccc4)n2[B-]3(F)F)cc1, the fluorescence lifetime (in Cc1ccccc1) was 1.56 ns.
For CCC(CC)n1c2ccccc2c2cc3c(cc21)c1ccccc1n3C(CC)CC, the fluorescence lifetime (in ClC(Cl)Cl) was 3.05 ns.
